Laboratory results taken from ChEMBL document CHEMBL1201862, “PubChem BioAssay data set” (2004).
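Dose response: 5 concentrations. Exposure: 48 h. Format: 96-well plates. Endpoint: linear interpolation; highest concentration if not reached. GI50 = concentration required for 50% inhibition of growth.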 Activity calls are given as the source filed them. Cut-off read from the data, not from the text of the source: active = GI50 up to about 1.1 µM and inactive = higher. Where a SMILES comes first, the peptide text is derived from it. The star is where a group is joined. Boc = CC(C)(C)OC(=O)*

Experiments:
Test in all cases: NCI tumour cell line growth inhibition, 48 h
[1] = tested on: ACHN
[2] = tested on: COLO 205
[3] = tested on: EKVX
[4] = tested on: HCT-15
[5] = tested on: HL-60
[6] = tested on: MOLT-4
[7] = tested on: NCI-H226
[8] = tested on: NCI-H23
[9] = tested on: NCI-H460
[10] = tested on: NCI/ADR-RES
[11] = tested on: SF-268
[12] = tested on: SF-295
[13] = tested on: SF-539
[14] = tested on: SK-MEL-2
[15] = tested on: SK-MEL-5
[16] = tested on: SW-620
[17] = tested on: A549
[18] = tested on: OVCAR-3
[19] = tested on: OVCAR-5
[20] = tested on: Malme-3M

Compound | GI50 [1] | GI50 [2] | GI50 [3] | GI50 [4] [µM] | GI50 [5] | GI50 [6] | GI50 [7] | GI50 [8] | GI50 [9] | GI50 [10] | GI50 [11] | GI50 [12] | GI50 [13] | GI50 [14] | GI50 [15] | GI50 [16] | GI50 [17] | GI50 [18] | GI50 [19] | GI50 [20]
CC(=O)Nc1ccc(-c2nc3ccccc3s2)cc1 | 32.4 µM (inactive) | 58.9 µM (inactive) | 85.1 µM (inactive) | 81.5 | 81.7 µM (inactive) | 20.2 µM (inactive) | 44.8 µM (inactive) | 52.1 µM (inactive) | 36.1 µM (inactive) | 28.7 µM (inactive) | 51.3 µM (inactive) | 29.6 µM (inactive) | 26.2 µM (inactive) | 57.4 µM (inactive) | > 100 µM (inactive) | 53.6 µM (inactive) |  |  |  | 
CC(C)OC(=O)c1ccc(NCc2cc(O)ccc2O)cc1Cl | 1.78 µM (inactive) | 2.3 µM (inactive) | 4.92 µM (inactive) | 0.798 | 0.364 µM (active) | 0.695 µM (active) | 8.22 µM (inactive) | 4.39 µM (inactive) | 6.08 µM (inactive) | 2.78 µM (inactive) | 13.1 µM (inactive) | 12.2 µM (inactive) | 1.75 µM (inactive) | 15.1 µM (inactive) | 2.73 µM (inactive) | 2.72 µM (inactive) | 12 µM (inactive) | 2.56 µM (inactive) | 8.43 µM (inactive) | 
O=C(O)CSc1ncccc1[N+](=O)[O-] | > 100 µM (inactive) | > 100 µM (inactive) | > 100 µM (inactive) | > 100 | > 100 µM (inactive) | > 100 µM (inactive) | > 100 µM (inactive) | > 100 µM (inactive) | > 100 µM (inactive) | > 100 µM (inactive) | > 100 µM (inactive) | > 100 µM (inactive) | > 100 µM (inactive) | > 100 µM (inactive) | > 100 µM (inactive) | > 100 µM (inactive) | > 100 µM (inactive) | > 100 µM (inactive) | > 100 µM (inactive) | > 100 µM (inactive)
CCCc1cn2c(/C=N/NC(=N)N)c(-c3cc([N+](=O)[O-])c(Cl)cc3Cl)nc2s1 | 1.77 µM (inactive) | 1.48 µM (inactive) |  | 1.66 | 1.76 µM (inactive) | 0.17 µM (active) | 1.82 µM (inactive) | 1.67 µM (inactive) | 1.72 µM (inactive) | 1.99 µM (inactive) | 1.69 µM (inactive) | 1.73 µM (inactive) | 1.88 µM (inactive) | 1.87 µM (inactive) | 1.61 µM (inactive) | 1.61 µM (inactive) | 1.48 µM (inactive) | 1.5 µM (inactive) | 1.75 µM (inactive) | 
CCCCCCSc1nc(COC(=O)NC)c(COC(=O)NC)n1C | > 100 µM (inactive) | > 100 µM (inactive) | > 100 µM (inactive) | > 100 | > 100 µM (inactive) | > 100 µM (inactive) | > 100 µM (inactive) | > 100 µM (inactive) | > 100 µM (inactive) | > 100 µM (inactive) | > 100 µM (inactive) | > 100 µM (inactive) | > 100 µM (inactive) | > 100 µM (inactive) | > 100 µM (inactive) | > 100 µM (inactive) | > 100 µM (inactive) | > 100 µM (inactive) | > 100 µM (inactive) | 
COc1cc(/C=C2\C(=O)N(Cc3ccccc3)C(c3ccccc3)S2(=O)=O)cc(OC)c1OC (stereo unspecified) | 67.3 µM (inactive) | 21.3 µM (inactive) | 17.1 µM (inactive) | 27.5 | 5.13 µM (inactive) | 4.11 µM (inactive) | 50.6 µM (inactive) | 33.4 µM (inactive) | 35.4 µM (inactive) | 27.6 µM (inactive) | 31.3 µM (inactive) | 27 µM (inactive) |  | 27.1 µM (inactive) | 12 µM (inactive) | 79.1 µM (inactive) | 29.9 µM (inactive) | 47.3 µM (inactive) | > 100 µM (inactive) | 39.9 µM (inactive)
Oc1c2cc(Br)cc1CCc1cc(Br)cc(c1O)CC2 | 23.7 µM (inactive) | 14.4 µM (inactive) |  | 30.5 | 15.7 µM (inactive) | 18 µM (inactive) | 16.3 µM (inactive) | 28.6 µM (inactive) | 18.5 µM (inactive) | 21.6 µM (inactive) | 22.6 µM (inactive) | 18.3 µM (inactive) | 28.4 µM (inactive) | 20 µM (inactive) | 13.6 µM (inactive) | 24.3 µM (inactive) | 26.9 µM (inactive) | 20.2 µM (inactive) | 23.2 µM (inactive) | 28.8 µM (inactive)
Cc1nc2ccc(Br)cc2c(=O)n1-c1nnc(C(C)(C)C)s1 | > 10 µM (inactive) | > 10 µM (inactive) | > 10 µM (inactive) | > 10 | > 10 µM (inactive) | > 10 µM (inactive) | > 10 µM (inactive) | > 10 µM (inactive) | > 10 µM (inactive) | > 10 µM (inactive) | > 10 µM (inactive) | > 10 µM (inactive) | > 10 µM (inactive) | > 10 µM (inactive) | > 10 µM (inactive) | > 10 µM (inactive) | > 10 µM (inactive) | > 10 µM (inactive) | > 10 µM (inactive) | 
Clc1nc(Nc2nc3ccccc3[nH]2)nc(Cl)c1Cc1ccccc1 | 85.7 µM (inactive) | > 100 µM (inactive) | > 100 µM (inactive) | 40.2 | > 100 µM (inactive) | > 100 µM (inactive) | > 100 µM (inactive) | > 100 µM (inactive) | 89.1 µM (inactive) | > 100 µM (inactive) | 49.4 µM (inactive) | > 100 µM (inactive) | 31.2 µM (inactive) | > 100 µM (inactive) | > 100 µM (inactive) | > 100 µM (inactive) | > 100 µM (inactive) |  | > 100 µM (inactive) | > 100 µM (inactive)
N#CC1=C(S)N(C2OC(CO)C(O)C(O)C2O)C(c2ccccc2)=CC1c1cccs1 (stereo unspecified) | 18.7 µM (inactive) | 21.1 µM (inactive) |  | 32.7 | 28.9 µM (inactive) | 22.7 µM (inactive) | 16.6 µM (inactive) | 28.1 µM (inactive) | 17.7 µM (inactive) | > 100 µM (inactive) | 24.8 µM (inactive) | 17.5 µM (inactive) | 18.6 µM (inactive) | 22.5 µM (inactive) | 14.1 µM (inactive) | 16.6 µM (inactive) | 20 µM (inactive) | 27.9 µM (inactive) | 51.1 µM (inactive) | 19.3 µM (inactive)
CC1SCCc2nc3ccccc3n21 (stereo unspecified) |  | > 100 µM (inactive) | > 100 µM (inactive) | > 100 | > 100 µM (inactive) | > 100 µM (inactive) | > 100 µM (inactive) | > 100 µM (inactive) | > 100 µM (inactive) | > 100 µM (inactive) | > 100 µM (inactive) | > 100 µM (inactive) | > 100 µM (inactive) | > 100 µM (inactive) | > 100 µM (inactive) | > 100 µM (inactive) | > 100 µM (inactive) | > 100 µM (inactive) | > 100 µM (inactive) | 
CCCc1cc(O)c2c(C)c3[nH]c4ccc(Cl)cc4c3c(C)c2n1 | 1.91 µM (inactive) | 2 µM (inactive) | 2.44 µM (inactive) | 1.69 | 1.67 µM (inactive) | 2.81 µM (inactive) | 2.81 µM (inactive) | 2.91 µM (inactive) | 1.97 µM (inactive) | 3.21 µM (inactive) | 6.71 µM (inactive) | 2.36 µM (inactive) | 1.92 µM (inactive) | 3.57 µM (inactive) | 9.68 µM (inactive) | 1.63 µM (inactive) | 2.24 µM (inactive) |  | 2.46 µM (inactive) | 10.7 µM (inactive)
COc1ccc(/C=C2\N=C3Sc4c([nH]cnc4=O)N3C2=O)cc1 | > 100 µM (inactive) | > 100 µM (inactive) | 78.9 µM (inactive) | > 100 | > 100 µM (inactive) | > 100 µM (inactive) | > 100 µM (inactive) | > 100 µM (inactive) |  | > 100 µM (inactive) | > 100 µM (inactive) | > 100 µM (inactive) | > 100 µM (inactive) | > 100 µM (inactive) | > 100 µM (inactive) | > 100 µM (inactive) | > 100 µM (inactive) | > 100 µM (inactive) | > 100 µM (inactive) | > 100 µM (inactive)
COC(=O)CNC(=O)C(Cc1ccccc1)NC(=O)C(CCSC)NC(=O)C(Cc1ccc(O)cc1)NC(=O)OC(C)(C)C (stereo unspecified) (Boc-YMFG-OMe; configuration not given here) | > 100 µM (inactive) | 79.3 µM (inactive) |  | > 100 | 53 µM (inactive) | 17.5 µM (inactive) | > 100 µM (inactive) | 56.1 µM (inactive) | > 100 µM (inactive) | > 100 µM (inactive) | 29.7 µM (inactive) | > 100 µM (inactive) | > 100 µM (inactive) | 18.1 µM (inactive) | > 100 µM (inactive) | 40.3 µM (inactive) | > 100 µM (inactive) | 16.9 µM (inactive) | > 100 µM (inactive) | > 100 µM (inactive)
COc1ccc([C@@]23Oc4cc(OC)cc(OC)c4[C@]2(O)[C@H](O)[C@H](C(=O)N(C)C)[C@H]3c2ccccc2)cc1 [ROCAGLAMIDE] | 0.00344 µM (active) | 0.00647 µM (active) | 0.0203 µM (active) | 0.0176 | 0.00383 µM (active) | 0.00192 µM (active) | 0.0113 µM (active) | 0.00885 µM (active) | 0.0027 µM (active) | 0.0306 µM (active) | 0.00849 µM (active) | 0.0045 µM (active) |  | 0.0197 µM (active) | 0.00301 µM (active) | 0.00299 µM (active) | 0.00353 µM (active) | 0.056 µM (active) | 0.00991 µM (active) | 0.00429 µM (active)
